Laboratory results as given in the Deep4Chem optical property database.
Where “and” joins values, the source holds several entries; their conditions need not be identical. Equal entries are not always repeated.

Experiment: photoluminescence quantum yield (fraction); solvent given as SMILES

SMILES: N#Cc1ccc(-c2cn3ccc[n+]3[n-]2)cc1
- photoluminescence quantum yield (in ClCCl): 0.18

SMILES: Cc1ccc(C)c(C2=C3C=CC(=[N+](C)C)C=C3[Si](C)(C)c3cc(N(C)C)ccc32)c1
- photoluminescence quantum yield (in O): 0.32

SMILES: CCC12C(=C3C(=C4c5ccc(-c6ccc(C)s6)cc5S(=O)(=O)C41CC)C(F)(F)C(F)(F)C3(F)F)c1ccc(-c3ccc(C)s3)cc1S2(=O)=O (stereo unspecified)
- photoluminescence quantum yield (in C1COCCO1): 0.78
- photoluminescence quantum yield (in CC#N): 0.67
- photoluminescence quantum yield (in CCCCCC): 0.72
- photoluminescence quantum yield (in CCO): 0.62

SMILES: c1ccc(N(c2ccccc2)c2ccc(-c3ccc4c(c3)C3(c5cc(-c6ccc(N(c7ccccc7)c7ccccc7)cc6)ccc5-4)c4ccccc4N(c4ccccc4)c4ccccc43)cc2)cc1
- photoluminescence quantum yield (in ClCCl): 0.82
- photoluminescence quantum yield (in c1cc(-n2c3ccccc3c3ccccc32)cc(-n2c3ccccc3c3ccccc32)c1): 0.86

SMILES: C(=C\c1ccc(-c2ccncc2)cc1)/c1ccc(-c2ccncc2)cc1
- photoluminescence quantum yield (in ClCCl): 0.97

SMILES: C1=Cc2ccc(N(c3ccccc3)c3cccc4ccccc34)cc2C2(c3cc(N(c4ccccc4)c4cccc5ccccc45)ccc31)c1ccccc1-c1ccccc12
- photoluminescence quantum yield (in ClCCl): 0.58

SMILES: N#Cc1cc2ccc(O)cc2oc1=O
- photoluminescence quantum yield (in C1CCCCC1): 0.0105
- photoluminescence quantum yield (in C1CCOC1): 0.00102
- photoluminescence quantum yield (in CC#N): 0.00059
- photoluminescence quantum yield (in CCOC(C)=O): 0.0597
- photoluminescence quantum yield (in CS(C)=O): 0.00123
- photoluminescence quantum yield (in ClC(Cl)Cl): 0.0509

SMILES: O=C(c1ccc(N2c3ccccc3Oc3ccccc32)cc1)c1cccc(C(=O)c2ccc(N3c4ccccc4Oc4ccccc43)cc2)c1
- photoluminescence quantum yield (in Cc1ccccc1): 0.36
- photoluminescence quantum yield (in c1cc(-c2cccc(-n3c4ccccc4c4ccccc43)c2)cc(-n2c3ccccc3c3ccccc32)c1): 0.71

SMILES: Cc1cccc2cc(-c3cc4cccc(C)c4oc3=O)oc12
- photoluminescence quantum yield (in CS(C)=O): 0.88

SMILES: F[B-]1(F)n2c(Oc3ccccc3)c(Cl)c(Br)c2C(Oc2ccccc2)=C2C(Br)=C(Cl)C(Oc3ccccc3)=[N+]21
- photoluminescence quantum yield (in ClCCl): 0.68

SMILES: CC(C)[Si](C#Cc1c2nc3ccccc3nc2c(C#C[Si](C(C)C)(C(C)C)C(C)C)c2nc3c4ccccc4c(=O)c4ccccc4c3nc12)(C(C)C)C(C)C
- photoluminescence quantum yield (in ClCCl): 0.5

SMILES: CN(C)c1ccc(-c2cc(-c3ccc(C#N)cc3)nn2C)cc1
- photoluminescence quantum yield (in ClCCl): 0.21

SMILES: Nc1ccc2c(c1)C(=O)NC2=O
- photoluminescence quantum yield (in C1CCOC1): 0.7 and 1
- photoluminescence quantum yield (in C1COCCO1): 0.73
- photoluminescence quantum yield (in CC#N): 0.63
- photoluminescence quantum yield (in CC(C)=O): 0.68
- photoluminescence quantum yield (in CCO): 0.21
- photoluminescence quantum yield (in CN(C)C=O): 0.91
- photoluminescence quantum yield (in ClCCl): 0.76

SMILES: CCN(CC)c1ccc(/C=C/c2cc(/C=C/c3ccc(N(CC)CC)cc3)nc(N)n2)cc1
- photoluminescence quantum yield (in Cc1ccccc1): 0.72
- photoluminescence quantum yield (in ClC(Cl)Cl): 0.61

SMILES: F[B-]1(F)n2c(Cl)c(Cl)c(Br)c2C(Cl)=C2C(Br)=C(Cl)C(Cl)=[N+]21
- photoluminescence quantum yield (in ClCCl): 0.18

SMILES: CB1C=Cc2ccc3ccccc3c2N1
- photoluminescence quantum yield (in C1CCCCC1): 0.7

SMILES: COc1cccc(C2=C3C=C(/C=C/C(=O)OC(C)(C)C)C=[N+]3[B-](F)(F)n3cccc32)c1
- photoluminescence quantum yield (in ClCCl): 0.09

SMILES: CC1(C)c2cc(/C=C/c3nc(/C=C/c4ccc5c(c4)C(C)(C)c4cc(N(c6ccccc6)c6ccc7ccccc7c6)ccc4-5)nc(/C=C/c4ccc5c(c4)C(C)(C)c4cc(N(c6ccccc6)c6ccc7ccccc7c6)ccc4-5)n3)ccc2-c2ccc(N(c3ccccc3)c3ccc4ccccc4c3)cc21
- photoluminescence quantum yield (in Cc1ccccc1): 0.25

SMILES: N#Cc1nn(-c2ccc(Cl)cc2)nc1N1CCCC1
- photoluminescence quantum yield (in CC#N): 0.829

SMILES: COC(=O)c1cc(=O)n(C)c2cc(-c3ccc(N(C)C)cc3)sc12
- photoluminescence quantum yield (in CC#N): 0.08
- photoluminescence quantum yield (in ClCCl): 0.82

SMILES: COc1ccc2cc(-c3ccc([N+](=O)[O-])cc3)ccc2c1
- photoluminescence quantum yield (in C1CCOC1): 0.006
- photoluminescence quantum yield (in CC#N): 0.006
- photoluminescence quantum yield (in ClC(Cl)Cl): 0.055
- photoluminescence quantum yield (in ClCCl): 0.11

SMILES: Cc1c2ccc3c(C)[n+](C)ccc3c2cc[n+]1C
- photoluminescence quantum yield (in CC#N): 0.38

SMILES: Cc1cc(C)c(B(c2c(C)cc(C)cc2C)c2cc3ccc4ccccc4c3c3c2cc(N(C)C)c2ccccc23)c(C)c1
- photoluminescence quantum yield (in C1CCCCC1): 0.23
- photoluminescence quantum yield (in C1CCOC1): 0.09
- photoluminescence quantum yield (in CC#N): 0.04
- photoluminescence quantum yield (in ClC(Cl)Cl): 0.1
- photoluminescence quantum yield (in c1ccccc1): 0.14

SMILES: COC(=O)c1ccc(NC(=O)c2ccc(N(C)C)cc2)cc1
- photoluminescence quantum yield (in C1CCCCC1): 0.0148
- photoluminescence quantum yield (in C1CCOC1): 0.198
- photoluminescence quantum yield (in CC#N): 0.0209
- photoluminescence quantum yield (in CCOCC): 0.0512

SMILES: Nc1nc2ccccc2[n+]([O-])n1
- photoluminescence quantum yield (in CC#N): 0.169
- photoluminescence quantum yield (in O): 0.0367

SMILES: CCC(C)(C)c1ccc(-c2ccc3c(c2)C(CCOC)(CCOC)c2cc4c(cc2-3)C(CCOC)(CCOC)c2cc(-c3ccc(C(C)(C)CC)cc3)ccc2-4)cc1
- photoluminescence quantum yield (in C1CCCCC1): 0.86

SMILES: CCOC(=O)CSc1nc(C)c(CC)c(C#N)c1C#N
- photoluminescence quantum yield (in c1ccccc1): 0.034

SMILES: CCN(CC)c1ccc2c(-c3ccccc3C(=O)O)c3c([o+]c2c1)/C(=C/c1ccc(N(C)C)cc1)CCC3
- photoluminescence quantum yield (in ClCCl): 0.04

SMILES: Cc1ccc(-c2oc3cccc4c5c(-c6ccc(C)cc6)c(=N)oc6cccc(c2c34)c65)cc1
- photoluminescence quantum yield (in ClC(Cl)Cl): 0.1

SMILES: CCC(C)(C)c1ccc2c(c1)C(CCOC)(CCOC)c1cc(-c3ccc(-c4ccc5c(c4)C(CCOC)(CCOC)c4cc(C(C)(C)CC)ccc4-5)cc3)ccc1-2
- photoluminescence quantum yield (in C1CCCCC1): 0.9

SMILES: CCCCCCCCOc1cc(/C=C/c2ccncc2)c(OCCCCCCCC)cc1/C=C/c1ccncc1
- photoluminescence quantum yield (in ClCCl): 0.634

SMILES: N#Cc1c(N2CCCC2)cc(-c2ccccc2)c2c1-c1cccc3cccc-2c13
- photoluminescence quantum yield (in O): 0.25
